Assay results taken from patent US20080107609A1, “PULMONARY DISEASE TREATMENT” (Schering Corporation, priority 2003, published 2008).

Columns and labels:
[1] = test system: patients suffering from chronic obstructive pulmonary disease; test: Example 2: randomized double-blind parallel-group clinical trial of orally inhaled mometasone furoate vs placebo, FEV1 after salbutamol; format: in vivo, human; conditions: for ΔFEV1: corticosteroid-naive COPD patients, post-salbutamol; for mean change from baseline in ΔFEV1 over the twelve-month period: statistical analysis, increase
Experimental: A randomized double-blind, parallel-group clinical trial was conducted to compare the effects of orally inhaled mometasone furoate and a placebo, in patients suffering from chronic obstructive pulmonary disease. The multiple dose dry powder inhaler and placebo inhaler described in the preceding example were used for this study. A total of 769 patients met the criteria for evaluability, from 95 sites in 11 countries. The patients had not previously been treated with corticosteroids, either inhaled or orally dosed, but otherwise met the criteria of the preceding example. In the study, patients were prescribed either two inhalations from the inhaler each evening, or one inhalation each morning and one inhalation each evening, with a twelve-month treatment duration. Results of the study were as follows, where the ΔFEV1 value represents the average of differences between the patients' FEV1 scores at the beginning of the study and the FEV1 scores at the time of the subsequent measurement, with all of the FEV1 testing being performed after administration of inhaled salbutamol. For each time point, the number of patients remaining in the study is given.

[2] = test system: patients suffering from chronic obstructive pulmonary disease; test: Example 1: randomized double-blind clinical trial of orally inhaled mometasone furoate vs placebo, FEV1 after salbutamol; format: in vivo, human; conditions: for ΔFEV1: dry powder inhaler, COPD patients previously on inhaled corticosteroid, average change from study start, post-salbutamol
Experimental: A randomized, double-blind crossover clinical trial was conducted to compare the effects of orally inhaled mometasone furoate and a placebo, in patients suffering from chronic obstructive pulmonary disease. The drug was delivered from a multiple-dose dry powder inhaler charged with a mixture of mometasone furoate and lactose (having a component weight ratio of 1:5.8) in an agglomerated form. Placebo inhaler units contained only the lactose powder. The drug-containing inhalers delivered the following mean amounts of mometasone furoate particles per inhalation, as measured using an Anderson Cascade Impactor (from Thermo Anderson, Smyrna, Ga. U.S.A.) at an air flow rate through the inhaler of 60 L/minute:
Evaluable patients participating in the study numbered 578, all having been diagnosed with COPD of moderate severity, being at least 40 years of age, and also being maintained for at least three months prior to commencement of the study on daily inhalations of a corticosteroid drug (even though there was no regulatory agency-approved COPD therapy using an inhaled corticosteriod). […] The patients were enrolled at a total of 35 sites in 24 countries, and were prescribed two inhalations from the supplied inhaler device each evening for a twelve-month period, with evaluations by a physician after 1, 3, 6, 9, and 12 months of participation. A total of 294 of the patients were randomized to receive inhalers containing the drug, while 284 patients received placebo inhalers. All of the patients were permitted to further use inhaled salbutamol as needed.
Results of the study were as follows, where the ΔFEV1 value represents the average of differences between the patients' FEV1 scores at the beginning of the study and the FEV1 scores at the time of the subsequent measurement, with all of the FEV1 testing being performed after administration of inhaled salbutamol. For each time point, the number of patients remaining in the study is given.
From a statistical analysis of the data, it was determined that the mean change from baseline over the twelve-month period was an increase in ΔFEV1 of 4 mL for patients receiving the mometasone furoate, and a decrease of 36 mL for placebo patients.

C[C@@H]1C[C@H]2[C@@H]3CCC4=CC(=O)C=C[C@]4(C)[C@@]3(Cl)[C@@H](O)C[C@]2(C)[C@@]1(OC(=O)c1ccco1)C(=O)CCl [mometasone furoate, 9α,21-Dichloro-11β,17-dihydroxy-16α-methylpregna-1,4-diene-3,20-dione 17-(2-furoate)]
ΔFEV1 ([1]; Once Daily (two inhalations each evening), 1 month): 66 mL | ΔFEV1 ([1]; Once Daily (two inhalations each evening), 3 months): 57 mL | ΔFEV1 ([1]; Once Daily (two inhalations each evening), 6 months): 44 mL | ΔFEV1 ([1]; Once Daily (two inhalations each evening), 9 months): 37 mL | ΔFEV1 ([1]; Once Daily (two inhalations each evening), 12 months): 38 mL | ΔFEV1 ([1]; Twice Daily (one inhalation each morning and one each evening), 1 month): 72 mL | ΔFEV1 ([1]; Twice Daily (one inhalation each morning and one each evening), 3 months): 79 mL | ΔFEV1 ([1]; Twice Daily (one inhalation each morning and one each evening), 6 months): 36 mL | ΔFEV1 ([1]; Twice Daily (one inhalation each morning and one each evening), 9 months): 58 mL | ΔFEV1 ([1]; Twice Daily (one inhalation each morning and one each evening), 12 months): 31 mL | mean change from baseline in ΔFEV1 over the twelve-month period ([1]; dosed once daily): 50 mL | mean change from baseline in ΔFEV1 over the twelve-month period ([1]; dosed twice daily): 53 mL | pulmonary function over the trial period (FIG. 2) ([1]; twelve months, once daily and twice daily): generally improved their pulmonary function | comparison of both mometasone furoate treatments (once and twice daily) with placebo ([1]; twelve-month period, ΔFEV1): statistically significantly superior to the placebo treatment | ΔFEV1 ([2]; 1 month, two inhalations each evening): 5 mL | ΔFEV1 ([2]; 3 months, two inhalations each evening): 9 mL | ΔFEV1 ([2]; 6 months, two inhalations each evening): -2 mL | ΔFEV1 ([2]; 9 months, two inhalations each evening): 22 mL | ΔFEV1 ([2]; 12 months, two inhalations each evening): 7 mL | difference between treatments (drug vs placebo) in mean ΔFEV1 change ([2]; longitudinal analysis of variance model, twelve-month period): statistically significant | mean change from baseline in ΔFEV1 over the twelve-month period ([2]; statistical analysis (longitudinal analysis of variance), two inhalations each evening, increase): 4 mL | pulmonary function over the trial period (FIG. 1) ([2]; twelve months, two inhalations each evening): generally maintained or slightly improved their pulmonary function
